Here are results for 20 compounds from US20250163038A1, “CBL-B MODULATORS AND USES THEREOF” (Nimbus Clio, Inc., priority 2021, published 2025).

Experiment [1] addresses T1, Recombinant human c-Cbl (aa 47-435) (Homo sapiens, UniProt P22681).
T1 sequence (P22681 47-435): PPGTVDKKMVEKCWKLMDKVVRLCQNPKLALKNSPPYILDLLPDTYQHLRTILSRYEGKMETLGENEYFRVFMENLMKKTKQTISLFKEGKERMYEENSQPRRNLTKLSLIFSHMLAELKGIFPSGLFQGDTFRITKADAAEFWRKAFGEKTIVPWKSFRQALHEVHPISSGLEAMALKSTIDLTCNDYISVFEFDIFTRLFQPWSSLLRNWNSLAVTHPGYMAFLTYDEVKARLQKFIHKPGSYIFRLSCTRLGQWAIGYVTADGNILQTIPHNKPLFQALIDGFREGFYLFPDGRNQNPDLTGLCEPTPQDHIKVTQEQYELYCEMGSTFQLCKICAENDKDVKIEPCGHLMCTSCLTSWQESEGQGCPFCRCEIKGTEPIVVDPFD
As to the kind of experiment: c-Cbl Biochemical Assay (TR-FRET). The settings on record: hc-Cbl Biochemical Assay (TR-FRET); read-out: TR-FRET hcCbl IC50. A general note: In TR-FRET formats the signal depends on donor and acceptor labels being close together.

For experiment [2], the target named is Recombinant human Cbl-b (aa 36-427) (Homo sapiens, UniProt Q13191). As to the kind of experiment: Cbl-b Biochemical Assay (TR-FRET). The settings on record: read-out: TR-FRET hCbl-b IC50.
Experiment [3] deals with Jurkat (clone E6-1) cells with NFAT luciferase reporter. As to the kind of experiment: Jurkat reporter assay (NFAT Luciferase). In kind it is cell-based. The settings on record: Jurkat NFAT luciferase reporter cells, anti-CD3 stimulation, 6 hr, read-out: Jurkat NFAT EC50. On the technique in general: A reporter such as luciferase makes a cellular process visible.

Read-outs that look alike come from different tables or passages of the source. A value given as a limit tells only on which side of the number the result lay.

Recombinant human Cbl-b (aa 36-427), sequence (Q13191 36-427): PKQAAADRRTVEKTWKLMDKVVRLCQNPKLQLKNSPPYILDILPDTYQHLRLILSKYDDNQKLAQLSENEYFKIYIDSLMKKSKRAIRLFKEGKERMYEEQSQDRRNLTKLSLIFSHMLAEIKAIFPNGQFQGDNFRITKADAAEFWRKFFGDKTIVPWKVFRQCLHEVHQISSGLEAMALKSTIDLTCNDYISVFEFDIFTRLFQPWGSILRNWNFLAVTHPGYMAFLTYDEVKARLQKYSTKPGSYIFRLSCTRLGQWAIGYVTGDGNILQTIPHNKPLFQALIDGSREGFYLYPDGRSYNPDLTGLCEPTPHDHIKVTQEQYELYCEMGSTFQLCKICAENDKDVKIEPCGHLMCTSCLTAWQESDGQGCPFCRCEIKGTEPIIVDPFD

As usually defined, the IC50 is the concentration that inhibits the measured activity by half. Usually EC50 stands for the concentration at which the effect is half-maximal. Regarding `Cn1cnnc1-c1cc(F)ccc1-c1cccc(-c2nc3cc(CN)cc(C(F)(F)F)c3o2)c1` [EB-1, (2-(4′-Fluoro-2′-(4-methyl-4H-1,2,4-triazol-3-yl)-[1,1′-biphenyl]-3-yl)-7-(trifluoromethyl)benzo[d]oxazol-5-yl)methanamine], the IC50 in experiment [1] was 200 to 1000 nM; in experiment [2], < 200 nM. Besides, the 50% effective concentration (EC50) in experiment [3] (Homo sapiens) lay in the range of 1000 to 10000 nM.

Consider `COC(=O)c1cc(F)c2oc(-c3cc(-c4ccc(C#N)cc4-c4nncn4C)cc(C4CC4)n3)nc2c1` [AHC-1, methyl 2-{4-[4-cyano-2-(4-methyl-1,2,4-triazol-3-yl)phenyl]-6-cyclopropylpyridin-2-yl}-7-fluoro-1,3-benzoxazole-5-carboxylate], for which the figures for the IC50 in experiment [1] and in experiment [2] were 1000 to 10000 nM and 200 to 1000 nM, respectively. In experiment [3] (Homo sapiens), the EC50 lay within 1000 to 10000 nM.

With `Cn1cnnc1-c1cc(F)ccc1-c1cccc(-c2nc3cc(CNCC(C)(C)O)cc(C(F)(F)F)c3[nH]2)c1` [BT-1, 1-(((2-(4′-Fluoro-2′-(4-methyl-4H-1,2,4-triazol-3-yl)-[1,1′-biphenyl]-3-yl)-7-(trifluoromethyl)-1H-benzo[d]imidazol-5-yl)methyl)amino)-2-methylpropan-2-ol], the figures for the IC50 in experiment [1] and in experiment [2] were 1000 to 10000 nM and < 200 nM, respectively. For the same compound, the EC50 in experiment [3] (Homo sapiens) lay within 200 to 1000 nM.

Take `C[C@H](N[C@@H]1CCC[C@@H]1O)c1cc(C(F)(F)F)c2oc(-c3cccc(-c4ccc(F)cc4-c4nncn4C)c3)nc2c1` [EA-1, (1S,2R)-2-(((S)-1-(2-(4′-Fluoro-2′-(4-methyl-4H-1,2,4-triazol-3-yl)-[1,1′-biphenyl]-3-yl)-7-(trifluoromethyl)benzo[d]oxazol-5-yl)ethyl)amino)cyclopentan-1-ol]: the IC50 in experiment [1] and in experiment [2] was < 200 nM in each case. Also, in experiment [3] (Homo sapiens), the EC50 is < 200 nM.

On to `Cn1cnnc1-c1cc(F)ccc1-c1cccc(-c2nc3cc(CNCCO)cc(C(F)(F)F)c3o2)c1` [AN-2, 2-(((2-(4′-Fluoro-2′-(4-methyl-4H-1,2,4-triazol-3-yl)-[1,1′-biphenyl]-3-yl)-7-(trifluoromethyl)benzo[d]oxazol-5-yl)methyl)amino)ethan-1-ol], for which the IC50 in experiment [1] is 1000 to 10000 nM; in experiment [2], < 200 nM. Further, the EC50 in experiment [3] (Homo sapiens) was in the range of 1000 to 10000 nM.

Turning to `Cn1cnnc1-c1cc(F)ccc1-c1cccc(-c2cn3cc(CN[C@@H]4CCC[C@@H]4O)ccc3n2)c1` [GL-2, (1S,2R)-2-(((2-(4′-fluoro-2′-(4-methyl-4H-1,2,4-triazol-3-yl)-[1,1′-biphenyl]-3-yl)imidazo[1,2-a]pyridin-6-yl)methyl)amino)cyclopentan-1-ol], the IC50 in experiment [1] and in experiment [2] was 1000 to 10000 nM in each case. In experiment [3] (Homo sapiens), the EC50 was in the range of 10000 to 50000 nM.

In the case of `C[C@H]1CCCN(Cc2cc(C(F)(F)F)c3oc(-c4cccc(-c5ccc(C#N)cc5-c5nncn5C)c4)nc3c2)C1` [AQ-6, (S)-2-(4-Methyl-4H-1,2,4-triazol-3-yl)-3′-(5-((3-methylpiperidin-1-yl)methyl)-7-(trifluoromethyl)benzo[d]oxazol-2-yl)-[1,1′-biphenyl]-4-carbonitrile], the results for the IC50 in experiment [1] and in experiment [2] were 1000 to 10000 nM and < 200 nM, respectively. In addition, the EC50 in experiment [3] (Homo sapiens) was in the range of 200 to 1000 nM.

For the compound `COCCNCc1cc2nc(-c3cccc(-c4ccc(F)cc4-c4nncn4C)c3)oc2cc1F` [IR-1, N-((6-Fluoro-2-(4′-fluoro-2′-(4-methyl-4H-1,2,4-triazol-3-yl)-[1,1′-biphenyl]-3-yl)benzo[d]oxazol-5-yl)methyl)-2-methoxyethan-1-amine], the IC50 in experiment [1] was 200 to 1000 nM; in experiment [2], < 200 nM. Moreover, in experiment [3] (Homo sapiens), the EC50 is 200 to 1000 nM.

Take `Cn1cnnc1-c1cc(F)ccc1-c1cccc(-c2nc3cc(CO)cc(C4CC4)c3o2)c1` [ES-4, (7-Cyclopropyl-2-(4′-fluoro-2′-(4-methyl-4H-1,2,4-triazol-3-yl)-[1,1′-biphenyl]-3-yl)benzo[d]oxazol-5-yl)methanol]: the results for the IC50 in experiment [1] and in experiment [2] were 200 to 1000 nM and < 200 nM, respectively. For the same compound, the EC50 in experiment [3] (Homo sapiens) was in the range of 1000 to 10000 nM.

For `COc1cc(CN[C@@H]2CCC[C@@]2(C)O)cc2nc(-c3cccc(-c4ccc(F)cc4-c4nncn4C)c3)oc12` [GJ-2, (1R,2R)-2-(((2-(4′-fluoro-2′-(4-methyl-4H-1,2,4-triazol-3-yl)-[1,1′-biphenyl]-3-yl)-7-methoxybenzo[d]oxazol-5-yl)methyl)amino)-1-methylcyclopentan-1-ol, Formic Acid], the IC50 in experiment [1] and in experiment [2] was 200 to 1000 nM in each case. Moreover, the EC50 in experiment [3] (Homo sapiens) lay in the range of 1000 to 10000 nM.

In the case of `Cc1cc(CNCC2(F)CCC2)cc2nc(-c3cccc(-c4ccc(F)cc4-c4nncn4C)c3)oc12` [IC-1, 1-(2-(4′-Fluoro-2′-(4-methyl-4H-1,2,4-triazol-3-yl)-[1,1′-biphenyl]-3-yl)-7-methylbenzo[d]oxazol-5-yl)-N-((1-fluorocyclobutyl)methyl)methanamine], the IC50 in experiment [1] and in experiment [2] was < 200 nM throughout. Besides, the EC50 in experiment [3] (Homo sapiens) was 200 to 1000 nM.

As to `Cc1c(F)c(CN[C@@H]2CCC[C@@H]2O)cc2nc(-c3cc(-c4ccc(F)cc4-c4nncn4C)cc(C4CC4)n3)oc12` [AGQ-2, (1S,2R)-2-{[(2-{6-Cyclopropyl-4-[4-fluoro-2-(4-methyl-1,2,4-triazol-3-yl)phenyl]pyridin-2-yl}-6-fluoro-7-methyl-1,3-benzoxazol-5-yl)methyl]amino}cyclopentan-1-ol], the IC50 in experiment [1] and in experiment [2] was < 200 nM in each case. The concentration for a half-maximal effect (EC50) in experiment [3] (Homo sapiens) was < 200 nM.

Regarding `CC(NCC1(O)CCC1)c1cc(F)c2oc(-c3cc(-c4ccc(F)cc4-c4nncn4C)cc(C4CC4)n3)nc2c1` (stereo in doubt) [AFR-1, 1-({[(1R)-1-(2-{6-Cyclopropyl-4-[4-fluoro-2-(4-methyl-1,2,4-triazol-3-yl)phenyl]pyridin-2-yl}-7-fluoro-1,3-benzoxazol-5-yl)ethyl]amino}methyl)cyclobutan-1-ol], the IC50 in experiment [1] and in experiment [2] was < 200 nM in each case. Moreover, the EC50 in experiment [3] (Homo sapiens) is < 200 nM.

As to `Cn1cnnc1-c1cc(F)ccc1-c1cc(Cl)nc(-c2nc3cc(CN[C@@H]4CCC[C@@H]4O)cc(C(F)(F)F)c3[nH]2)c1` [ADY-2, (1S,2R)-2-{[(2-{6-Chloro-4-[4-fluoro-2-(4-methyl-1,2,4-triazol-3-yl)phenyl]pyridin-2-yl}-7-(trifluoromethyl)-1H-1,3-benzodiazol-5-yl)methyl]amino}cyclopentan-1-ol], the IC50 in experiment [1] and in experiment [2] was < 200 nM each time. Further, the half-maximal effective concentration (EC50) in experiment [3] (Homo sapiens) was < 200 nM.

As to `C[C@H]1CCCN(Cc2cc(C(F)(F)F)c3[nH]c(-c4cccc(-c5ccccc5-c5nncn5C)c4)nc3c2)C1` [AAI-5, 2-[2′-(4-Methyl-1,2,4-triazol-3-yl)-[1,1′-biphenyl]-3-yl]-6-{[(3S)-3-methylpiperidin-1-yl]methyl}-4-(trifluoromethyl)-3H-1,3-benzodiazole], the half-inhibitory concentration (IC50) in experiment [1] lay within 10000 to 50000 nM; in experiment [2] it was 200 to 1000 nM. In addition, the EC50 in experiment [3] (Homo sapiens) is 1000 to 10000 nM.

As to `COCCNCc1cc2nc(-c3cc(-c4ccc(F)cc4-c4nncn4C)cc(C4CC4)n3)oc2c(F)c1F` [AGB-1, [(2-{6-Cyclopropyl-4-[4-fluoro-2-(4-methyl-1,2,4-triazol-3-yl)phenyl]pyridin-2-yl}-6,7-difluoro-1,3-benzoxazol-5-yl)methyl](2-methoxyethyl)amine], the IC50 in experiment [1] and in experiment [2] was < 200 nM throughout. In addition, in experiment [3] (Homo sapiens), the EC50 was < 200 nM.

As for `COc1cc(CNCC2(O)CCC2)cc2nc(-c3cccc(-c4ccc(F)cc4-c4nncn4C)c3)oc12` [GA-1, 1-((((2-(4′-Fluoro-2′-(4-methyl-4H-1,2,4-triazol-3-yl)-[1,1′-biphenyl]-3-yl)-7-methoxybenzo[d]oxazol-5-yl)methyl)amino)methyl)cyclobutan-1-ol], the concentration for half-maximal inhibition (IC50) in experiment [1] and in experiment [2] was < 200 nM each time. Besides, in experiment [3] (Homo sapiens), the EC50 was < 200 nM.

`Cn1cnnc1-c1cc(F)ccc1-c1cccc(-c2nc3cc(CNCC4(O)COC4)cc(C(F)(F)F)c3[nH]2)c1` [BQ-1, 3-((((2-(4′-Fluoro-2′-(4-methyl-4H-1,2,4-triazol-3-yl)-[1,1′-biphenyl]-3-yl)-7-(trifluoromethyl)-1H-benzo[d]imidazol-5-yl)methyl)amino)methyl)oxetan-3-ol]: the IC50 in experiment [1] is 1000 to 10000 nM; in experiment [2], < 200 nM. For the same compound, in experiment [3] (Homo sapiens), the EC50 lay within 200 to 1000 nM.

Regarding `Cn1cnnc1-c1cc(F)ccc1-c1cccc(-c2nc3cc(CNCC4(C#N)CCCC4)cc(C(F)(F)F)c3o2)c1` [CX-1, 1-((((2-(4′-Fluoro-2′-(4-methyl-4H-1,2,4-triazol-3-yl)-[1,1′-biphenyl]-3-yl)-7-(trifluoromethyl)benzo[d]oxazol-5-yl)methyl)amino)methyl)cyclopentane-1-carbonitrile], the IC50 in experiment [1] and in experiment [2] was < 200 nM throughout. In addition, in experiment [3] (Homo sapiens), the EC50 is 200 to 1000 nM.

On to `Cn1cnnc1[C@]1(c2cccc(-c3nc4cc(CN[C@@H]5CCC[C@@H]5O)cc(C(F)(F)F)c4o3)c2)C[C@@H](C)C1` [ADE-3, (1S,2R)-2-{[(2-{3-[(1r,3s)-3-Methyl-1-(4-methyl-1,2,4-triazol-3-yl)cyclobutyl]phenyl}-7-(trifluoromethyl)-1,3-benzoxazol-5-yl)methyl]amino}cyclopentan-1-ol], for which the IC50 in experiment [1] and in experiment [2] was < 200 nM throughout. For the same compound, in experiment [3], the EC50 is < 200 nM.
